Data reported in patent publication US6482402B1, “Antimicrobial compositions and methods” (GelTex Pharmaceuticals, Inc., priority 1999, dated 2002).
“And” between values parts separate entries of the source, which are not always exact repeats. Identical values can stand only once.

Key:
[1] = system: C. parvum oocysts; experiment: In vitro C. parvum infectivity in Madin Darby Bovine Kidney cells (fluorescent antibody count of infected cells); type: cell-based, Cryptosporidium parvum; conditions: MDBK cells, 46 hours of infection, means of 12 high powered fields
Description: Activity of polyfensin compounds for Cryptosporidium parvum in vitro. Combination therapy of Polymer B with paromomycin Madin Darby Bovine Kidney cells were infected with C. parvum oocysts in the presence of media alone, paromomycin (2 and 0.25 mg/ml), Polymer B (0.01 or 0.001 mg/ml) or Polymer B (0.01 or 0.001 mg/ml) plus paromomycin at 0.25 mg/ml. After 4 hours of treatment, polymer was removed and replaced with media. After 46 hours of infection the monolayers were fixed, stained with fluorescent antibodies to cryptosporidium, and the numbers of infected cells were enumerated. Parasite numbers represent the means of 12 high powered fields, and numbers of parasites were normalized relative to treatment with media alone (arbitrarily set at 100). […] In vitro Combination therapy of Polymer A with paromomycin. Madin Darby Bovine kidney cells were infected with C. parvum oocysts in the presence of media alone, paromomycin (2 and 0.25 mg/ml), Polymer A (0.01 or 0.001 mg/ml) or Polymer A (0.0 1 or 0.00 1 mg/ml plus paromomycin at 0.25 mg/ml). After 4 hours of treatment, polymer was removed and replaced with media. After 46 hours of infection the monolayers were fixed, stained with fluorescent antibodies to cryptosporidium, and the numbers of infected cells were enumerated. Parasite numbers represent the means of 12 high powered fields, and numbers of parasites were normalized relative to treatment with media alone (arbitrarily set at 100).

[2] = system: C. parvum oocysts; experiment: In vivo oocyst shedding in C. parvum infected SCID mice; conditions: SCID mice infected day 0; prm alone 500 mg/kg/day by oral gavage from day 7; fecal smears, acid fast staining; water alone 25
Description: In vivo activity of selected polymers in combination with parmomycin
Severe combined immunodeficient mice (SCID) were infected with C. parvum oocysts on day 0. On day 7, mice were treated with water or Polymers A, E and D by delivery in maple flavored drinking water at 2000 mg/kg/day. For each treatment, mice additionally received water or 500 mg/kg/day paromomycin (prm) by oral gavage. Oocyst shedding was quantitated in fecal smears by acid fast staining. Average numbers of oocysts shed were as follows: Treatment with water alone, 25; treatment with prm alone 12. Treatment with polymers alone gave modest changes in oocysts shedding and ranged from ˜20% reduction in oocysts; to a ˜20% increase in shedding, relative to treatment with water alone. Combination of polymers with prm gave reductions in oocysts in the range of 50-90% relative to treatment with prm alone.

## NC[C@@H]1O[C@H](O[C@H]2[C@@H](O)[C@H](O[C@@H]3[C@@H](O)[C@H](N)C[C@H](N)[C@H]3O[C@H]3O[C@H](CO)[C@@H](O)[C@H](O)[C@H]3N)O[C@@H]2CO)[C@H](N)[C@@H](O)[C@@H]1O [paromomycin]
[1]; paromomycin alone at 0.25 mg/ml
  parasite numbers normalized relative to treatment with media alone (arbitrarily set at 100): 61.5 and 73.0
[1]; paromomycin alone at 2 mg/ml
  parasite numbers normalized relative to treatment with media alone (arbitrarily set at 100): 15.3
[1]; paromomycin alone at 2 mg/ml, listed as parmomycin
  parasite numbers normalized relative to treatment with media alone (arbitrarily set at 100): 15.4
[2]
  Average numbers of oocysts shed: 12
